Drawing on US20260250290A1 (BRISTOL-MYERS SQUIBB COMPANY, priority 2023, published 2026), this text covers IC50 for 21 compounds.

The target in this test is T1, SGK1 (Homo sapiens, UniProt O00141).
T1 sequence (O00141 1-431): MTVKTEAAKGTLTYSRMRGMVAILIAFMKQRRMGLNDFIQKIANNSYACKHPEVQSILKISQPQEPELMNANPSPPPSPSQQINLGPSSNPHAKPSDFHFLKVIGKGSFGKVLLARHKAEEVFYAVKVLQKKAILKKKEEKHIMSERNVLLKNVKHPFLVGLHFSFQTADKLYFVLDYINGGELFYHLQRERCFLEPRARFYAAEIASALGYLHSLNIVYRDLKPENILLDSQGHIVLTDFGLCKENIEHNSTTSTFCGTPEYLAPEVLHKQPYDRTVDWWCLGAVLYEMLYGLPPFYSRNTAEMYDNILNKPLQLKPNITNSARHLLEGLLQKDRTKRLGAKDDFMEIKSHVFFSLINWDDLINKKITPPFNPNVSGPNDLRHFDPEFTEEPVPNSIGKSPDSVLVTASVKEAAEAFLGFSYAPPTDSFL
Description: SGK1 inhibition Assay B (Echo mass spectrometry of phosphorylated peptide product). The test is classed as biochemical. The settings on record: 60 min at room temperature.

Counter-ions that a name gives are not always drawn.

Regarding `CC(C)N1CC2(CN(c3cccc(C(=O)N[C@@H]4CCCN(c5cc(-c6ccc(S(C)(=O)=O)c(F)c6)n6ncnc(N)c56)C4)n3)C2)C1` [Example 833, (R)-N-(1-(4-amino-7-(3-fluoro-4-(methylsulfonyl)phenyl)pyrrolo[2,1-f][1,2,4]triazin-5-yl)piperidin-3-yl)-6-(6-isopropyl-2,6-diazaspiro[3.3]heptan-2-yl)picolinamide], half-maximal inhibition (IC50) required 9 nM.

Regarding `CC(C)N1CC2(CN(c3cccc(C(=O)N[C@@H]4CCCN(c5cc(-c6ccc(S(C)(=O)=O)nc6)n6ncnc(N)c56)C4)n3)C2)C1` [Example 834, (R)-N-(1-(4-amino-7-(6-(methylsulfonyl)pyridin-3-yl)pyrrolo[2,1-f][1,2,4]triazin-5-yl)piperidin-3-yl)-6-(6-isopropyl-2,6-diazaspiro[3.3]heptan-2-yl)picolinamide], half-maximal inhibition (IC50) was put at 20 nM.

Turning to `CNC(=O)c1ccc(-c2cc(N3CCC[C@@H](NC(=O)c4sc(Cl)cc4OCCN(C)C)C3)c3c(N)ncnn23)cn1` [Example 835, (R)-5-(4-amino-5-(3-(5-chloro-3-(2-(dimethylamino)ethoxy)thiophene-2-carboxamido)piperidin-1-yl)pyrrolo[2,1-f][1,2,4]triazin-7-yl)-N-methylpicolinamide], the IC50 (usually the point on the concentration scale where inhibition reaches its midpoint) is 13 nM.

In turn, `CN1C2CCC1CC(Oc1cc(Cl)sc1C(=O)NC1CCCN(c3cc(-c4cnn(C(F)F)c4)n4ncnc(N)c34)C1)C2` [Example 836, N-((R)-1-(4-amino-7-(1-(difluoromethyl)-1H-pyrazol-4-yl)pyrrolo[2,1-f][1,2,4]triazin-5-yl)piperidin-3-yl)-5-chloro-3-(((1R,3s,5S)-8-methyl-8-azabicyclo[3.2.1]octan-3-yl)oxy)thiophene-2-carboxamide] returned an IC50 of 2 nM.

The compound `CN1[C@@H]2CC[C@H]1C[C@H](Oc1cc(Cl)sc1C(=O)N[C@@H]1CCCN(c3cc(-c4ccc(-n5cccn5)cc4)n4ncnc(N)c34)C1)C2` [Example 837, N-((R)-1-(7-(4-(1H-pyrazol-1-yl)phenyl)-4-aminopyrrolo[2,1-f][1,2,4]triazin-5-yl)piperidin-3-yl)-5-chloro-3-(((1R,3s,5S)-8-methyl-8-azabicyclo[3.2.1]octan-3-yl)oxy)thiophene-2-carboxamide] returned an IC50 of 4 nM.

`CC(=O)c1ccc(-c2cc(N3CCC[C@@H](NC(=O)c4sc(Cl)cc4O[C@@H]4C[C@H]5CC[C@@H](C4)N5C)C3)c3c(N)ncnn23)cn1` [Example 838, N-((R)-1-(7-(6-acetylpyridin-3-yl)-4-aminopyrrolo[2,1-f][1,2,4]triazin-5-yl)piperidin-3-yl)-5-chloro-3-(((1R,3s,5S)-8-methyl-8-azabicyclo[3.2.1]octan-3-yl)oxy)thiophene-2-carboxamide] had an IC50 of 2 nM.

For the compound `CC(=O)c1ccc(-c2cc(N3CCC[C@@H](NC(=O)c4sc(Cl)cc4O[C@@H]4C[C@H]5CC[C@@H](C4)N5C)C3)c3c(N)ncnn23)cc1F` [Example 839, N-((R)-1-(7-(4-acetyl-3-fluorophenyl)-4-aminopyrrolo[2,1-f][1,2,4]triazin-5-yl)piperidin-3-yl)-5-chloro-3-(((1R,3s,5S)-8-methyl-8-azabicyclo[3.2.1]octan-3-yl)oxy)thiophene-2-carboxamide], the IC50 amounted to 2 nM.

As to `CN1[C@@H]2CC[C@H]1C[C@H](Oc1cc(Cl)sc1C(=O)N[C@@H]1CCCN(c3cc(-c4ccc(C(F)(F)F)c(F)c4)n4ncnc(N)c34)C1)C2` [Example 841, N-((R)-1-(4-amino-7-(3-fluoro-4-(trifluoromethyl)phenyl)pyrrolo[2,1-f][1,2,4]triazin-5-yl)piperidin-3-yl)-5-chloro-3-(((1R,3s,5S)-8-methyl-8-azabicyclo[3.2.1]octan-3-yl)oxy)thiophene-2-carboxamide], the concentration for half-maximal inhibition (IC50) worked out at 17 nM.

On to `CN1[C@@H]2CC[C@H]1C[C@H](Oc1cc(Cl)sc1C(=O)N[C@@H]1CCCN(c3cc(-c4cnc(-n5cnnn5)c(F)c4)n4ncnc(N)c34)C1)C2` [Example 843, N-((R)-1-(4-amino-7-(5-fluoro-6-(1H-tetrazol-1-yl)pyridin-3-yl)pyrrolo[2,1-f][1,2,4]triazin-5-yl)piperidin-3-yl)-5-chloro-3-(((1R,3s,5S)-8-methyl-8-azabicyclo[3.2.1]octan-3-yl)oxy)thiophene-2-carboxamide], for which the IC50 came out at 2 nM.

Take `Cc1cc(O[C@@H]2C[C@H]3CC[C@@H](C2)N3C)c(C(=O)N[C@@H]2CCCN(c3cc(-c4cc(F)c(-n5cnnn5)c(F)c4)n4ncnc(N)c34)C2)s1` [Example 844, N-((R)-1-(4-amino-7-(3,5-difluoro-4-(1H-tetrazol-1-yl)phenyl)pyrrolo[2,1-f][1,2,4]triazin-5-yl)piperidin-3-yl)-5-methyl-3-(((1R,3s,5S)-8-methyl-8-azabicyclo[3.2.1]octan-3-yl)oxy)thiophene-2-carboxamide]: the IC50 worked out at 3 nM.

The compound `Cc1cc(O[C@@H]2C[C@H]3CC[C@@H](C2)N3C)c(C(=O)N[C@@H]2CCCN(c3cc(-c4cnc(-n5cnnn5)c(F)c4)n4ncnc(N)c34)C2)s1` [Example 845, N-((R)-1-(4-amino-7-(5-fluoro-6-(1H-tetrazol-1-yl)pyridin-3-yl)pyrrolo[2,1-f][1,2,4]triazin-5-yl)piperidin-3-yl)-5-methyl-3-(((1R,3s,5S)-8-methyl-8-azabicyclo[3.2.1]octan-3-yl)oxy)thiophene-2-carboxamide, TFA salt] came in with an IC50 of 3 nM.

`CC(=O)c1ccc(-c2cc(N3CCC[C@@H](NC(=O)c4sc(C)cc4O[C@@H]4C[C@H]5CC[C@@H](C4)N5C)C3)c3c(N)ncnn23)cn1` [Example 846, N-((R)-1-(7-(6-acetylpyridin-3-yl)-4-aminopyrrolo[2,1-f][1,2,4]triazin-5-yl)piperidin-3-yl)-5-methyl-3-(((1R,3s,5S)-8-methyl-8-azabicyclo[3.2.1]octan-3-yl)oxy)thiophene-2-carboxamide] registered an IC50 of 16 nM.

On to `Cc1cc(O[C@@H]2C[C@H]3CC[C@@H](C2)N3C)c(C(=O)N[C@@H]2CCCN(c3cc(-c4ccc(-n5cnnn5)c(F)c4)n4ncnc(N)c34)C2)s1` [Example 847, N-((R)-1-(4-amino-7-(3-fluoro-4-(1H-tetrazol-1-yl)phenyl)pyrrolo[2,1-f][1,2,4]triazin-5-yl)piperidin-3-yl)-5-methyl-3-(((1R,3s,5S)-8-methyl-8-azabicyclo[3.2.1]octan-3-yl)oxy)thiophene-2-carboxamide, TFA salt], for which the IC50 was 2 nM.

Compound `Cc1cc(O[C@@H]2C[C@H]3CC[C@@H](C2)N3C)c(C(=O)N[C@@H]2CCCN(c3cc(-c4cnn(C(F)F)c4)n4ncnc(N)c34)C2)s1` [Example 848, N-((R)-1-(4-amino-7-(1-(difluoromethyl)-1H-pyrazol-4-yl)pyrrolo[2,1-f][1,2,4]triazin-5-yl)piperidin-3-yl)-5-methyl-3-(((1R,3s,5S)-8-methyl-8-azabicyclo[3.2.1]octan-3-yl)oxy)thiophene-2-carboxamide, TFA salt] showed an IC50 of 6 nM.

The compound `CN1CCN(c2nccc(C(=O)N[C@@H]3CCCN(c4cc(-c5ccc(-n6cnnn6)c(F)c5)n5ncnc(N)c45)C3)n2)CC1` [Example 849, (R)-N-(1-(4-amino-7-(3-fluoro-4-(1H-tetrazol-1-yl)phenyl)pyrrolo[2,1-f][1,2,4]triazin-5-yl)piperidin-3-yl)-2-(4-methylpiperazin-1-yl)pyrimidine-4-carboxamide] returned an IC50 of 2 nM.

On to `Cc1cc(-c2cc(N3CCC[C@@H](NC(=O)c4ccnc(N5CCN(C)CC5)n4)C3)c3c(N)ncnn23)ccc1-n1cnnn1` [Example 850, (R)-N-(1-(4-amino-7-(3-methyl-4-(1H-tetrazol-1-yl)phenyl)pyrrolo[2,1-f][1,2,4]triazin-5-yl)piperidin-3-yl)-2-(4-methylpiperazin-1-yl)pyrimidine-4-carboxamide], for which 10 nM corresponded to half-maximal inhibition (IC50).

`CC(=O)c1ccc(-c2cc(N3CCC[C@@H](NC(=O)c4ccnc(N5CCN(C)CC5)n4)C3)c3c(N)ncnn23)cn1` [Example 851, (R)-N-(1-(7-(6-acetylpyridin-3-yl)-4-aminopyrrolo[2,1-f][1,2,4]triazin-5-yl)piperidin-3-yl)-2-(4-methylpiperazin-1-yl)pyrimidine-4-carboxamide] returned an IC50 of 18 nM.

As to `CN1CCN(c2nccc(C(=O)N[C@@H]3CCCN(c4cc(-c5ccc(-n6cnnn6)c(CO)c5)n5ncnc(N)c45)C3)n2)CC1` [Example 852, (R)-N-(1-(4-amino-7-(3-(hydroxymethyl)-4-(1H-tetrazol-1-yl)phenyl)pyrrolo[2,1-f][1,2,4]triazin-5-yl)piperidin-3-yl)-2-(4-methylpiperazin-1-yl)pyrimidine-4-carboxamide, TFA salt], the IC50 was found to be 10 nM.

Compound `CN1CCN(c2nccc(C(=O)N[C@@H]3CCCN(c4cc(-c5cc(F)c(-n6cnnn6)cc5F)n5ncnc(N)c45)C3)n2)CC1` [Example 853, (R)-N-(1-(4-amino-7-(2,5-difluoro-4-(1H-tetrazol-1-yl)phenyl)pyrrolo[2,1-f][1,2,4]triazin-5-yl)piperidin-3-y1)-2-(4-methylpiperazin-1-yl)pyrimidine-4-carboxamide] gave a concentration for half-maximal inhibition (IC50) of 12 nM.

`CN1CCN(c2nccc(C(=O)N[C@@H]3CCCN(c4cc(-c5cc(F)c(-n6cnnn6)c(F)c5)n5ncnc(N)c45)C3)n2)CC1` [Example 854] registered a 50% inhibitory concentration (IC50) of 1 nM.

Consider `COc1cc(-c2cc(N3CCC[C@@H](NC(=O)c4ccnc(N5CCN(C)CC5)n4)C3)c3c(N)ncnn23)ccc1-n1cnnn1` [Example 855, (R)-N-(1-(4-amino-7-(3-methoxy-4-(1H-tetrazol-1-yl)phenyl)pyrrolo[2,1-f][1,2,4]triazin-5-yl)piperidin-3-yl)-2-(4-methylpiperazin-1-yl)pyrimidine-4-carboxamide], for which inhibition was half-maximal at 14 nM (IC50).
